Experimental data from ChEMBL document CHEMBL5046291, “Evodiamine-Inspired Topoisomerase-Histone Deacetylase Dual Inhibitors: Novel Orally Active Antitumor Agents for Leukemia Therapy” (J Med Chem, 2022).
Activity calls are given as the source filed them. The calls are words filed in the database; no cut-off is given here.

Tests used:
[1] = target: T1, DNA topoisomerase 1 (Homo sapiens) (UniProt P11387); test: Inhibition of recombinant Top1 (unknown origin) assessed as inhibition of relaxation of supercoiled pBR322 plasmid DNA at 100 uM incubated for 15 mins by ethidium bromide staining based agarose gel electrophoresis analysis
T1 sequence (whole entry): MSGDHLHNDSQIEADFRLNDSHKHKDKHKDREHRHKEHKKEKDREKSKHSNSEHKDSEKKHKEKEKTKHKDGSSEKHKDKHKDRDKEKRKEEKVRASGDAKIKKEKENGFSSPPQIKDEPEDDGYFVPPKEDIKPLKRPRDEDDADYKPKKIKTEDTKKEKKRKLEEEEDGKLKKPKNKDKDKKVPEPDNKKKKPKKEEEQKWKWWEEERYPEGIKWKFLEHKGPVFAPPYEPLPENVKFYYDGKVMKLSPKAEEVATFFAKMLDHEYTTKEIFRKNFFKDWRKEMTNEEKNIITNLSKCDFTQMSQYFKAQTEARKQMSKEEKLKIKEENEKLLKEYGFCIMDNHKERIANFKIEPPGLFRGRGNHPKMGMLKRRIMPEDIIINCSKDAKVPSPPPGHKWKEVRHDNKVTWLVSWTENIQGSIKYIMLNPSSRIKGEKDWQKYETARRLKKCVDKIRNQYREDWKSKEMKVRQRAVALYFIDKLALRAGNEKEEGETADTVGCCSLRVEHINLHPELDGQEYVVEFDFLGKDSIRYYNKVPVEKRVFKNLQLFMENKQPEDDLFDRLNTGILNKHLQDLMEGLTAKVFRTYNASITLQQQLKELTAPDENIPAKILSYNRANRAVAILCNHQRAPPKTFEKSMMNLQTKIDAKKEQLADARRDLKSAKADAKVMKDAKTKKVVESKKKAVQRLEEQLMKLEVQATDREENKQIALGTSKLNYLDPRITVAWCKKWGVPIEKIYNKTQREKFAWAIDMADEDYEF

[2] = target: DNA topoisomerase 2-alpha (Homo sapiens) (UniProt P11388); test: Inhibition of recombinant Top2 (unknown origin) assessed as inhibition of relaxation of supercoiled pBR322 plasmid DNA at 50 uM incubated for 15 mins by ethidium bromide staining based agarose gel electrophoresis analysis
[3] = target: T2, Histone deacetylase 1 (Homo sapiens, UniProt Q13547); test: Inhibition of full-length recombinant human HDAC1 expressed in Baculovirus expression system using Ac-Leu-Gly-Lys(Ac)-AMC as substrate preincubated for 5 mins followed by substrate addition and further incubated for 30 mins by fluorescence based microtiter plate reader assay
[4] = system: MCF7; test: Antiproliferative activity against human MCF7 cells assessed as cell growth inhibition incubated for 8 hrs by CCK8 assay; assay type: functional, cell-based; conditions: MCF7, 8 h
[5] = system: A549; test: Antiproliferative activity against human A549 cells assessed as cell growth inhibition incubated for 8 hrs by CCK8 assay; assay type: functional, cell-based; conditions: A549, 8 h
[6] = system: HCT-116; test: Antiproliferative activity against human HCT-116 cells assessed as cell growth inhibition incubated for 8 hrs by CCK8 assay; assay type: functional, cell-based; conditions: HCT-116, 8 h
[7] = system: HepG2; test: Antiproliferative activity against human HepG2 cells assessed as cell growth inhibition incubated for 8 hrs by CCK8 assay; assay type: functional, cell-based; conditions: HepG2, 8 h
[8] = system: K562; test: Antiproliferative activity against human K562 cells assessed as cell growth inhibition incubated for 8 hrs by CCK8 assay; assay type: functional, cell-based; conditions: K562, 8 h
[9] = system: HEL; test: Antiproliferative activity against HEL cells assessed as cell growth inhibition incubated for 8 hrs by CCK8 assay; assay type: functional, cell-based; conditions: Homo sapiens
[10] = target: T1, DNA topoisomerase 1 (Homo sapiens); test: Inhibition of recombinant Top1 (unknown origin) assessed as inhibition of relaxation of supercoiled pBR322 plasmid DNA at 50 uM incubated for 15 mins by ethidium bromide staining based agarose gel electrophoresis analysis
[11] = target: DNA topoisomerase 2-alpha (Homo sapiens) (UniProt P11388); test: Inhibition of recombinant Top2 (unknown origin) assessed as inhibition of relaxation of supercoiled pBR322 plasmid DNA at 100 uM incubated for 15 mins by ethidium bromide staining based agarose gel electrophoresis analysis
[12] = target: T3, Histone deacetylase 2 (Homo sapiens, UniProt Q92769); test: Inhibition of recombinant full length C-terminal GST tagged human HDAC2 expressed in baculovirus infected Sf9 insect cells using Ac-Leu-Gly-Lys(Ac)-AMC as substrate preincubated for 5 mins followed by substrate addition and further incubated for 30 mins by fluorescence based microtiter plate reader assay
[13] = target: Histone deacetylase 3 (Homo sapiens, UniProt O15379); test: Inhibition of recombinant His-tagged human HDAC3 expressed in baculovirus infected insect cells using Ac-Leu-Gly-Lys(Ac)-AMC as substrate preincubated for 5 mins followed by substrate addition and further incubated for 30 mins by fluorescence based microtiter plate reader assay
[14] = target: T4, Protein deacetylase HDAC6 (Homo sapiens, UniProt Q9UBN7); test: Inhibition of full-length recombinant N-terminal GST-tagged human HDAC6 expressed in baculovirus infected Sf9 cells using Ac-Leu-Gly-Lys(Ac)-AMC as substrate preincubated for 5 mins followed by substrate addition and further incubated for 30 mins by fluorescence based microtiter plate reader assay
T4 sequence (Q9UBN7 whole entry): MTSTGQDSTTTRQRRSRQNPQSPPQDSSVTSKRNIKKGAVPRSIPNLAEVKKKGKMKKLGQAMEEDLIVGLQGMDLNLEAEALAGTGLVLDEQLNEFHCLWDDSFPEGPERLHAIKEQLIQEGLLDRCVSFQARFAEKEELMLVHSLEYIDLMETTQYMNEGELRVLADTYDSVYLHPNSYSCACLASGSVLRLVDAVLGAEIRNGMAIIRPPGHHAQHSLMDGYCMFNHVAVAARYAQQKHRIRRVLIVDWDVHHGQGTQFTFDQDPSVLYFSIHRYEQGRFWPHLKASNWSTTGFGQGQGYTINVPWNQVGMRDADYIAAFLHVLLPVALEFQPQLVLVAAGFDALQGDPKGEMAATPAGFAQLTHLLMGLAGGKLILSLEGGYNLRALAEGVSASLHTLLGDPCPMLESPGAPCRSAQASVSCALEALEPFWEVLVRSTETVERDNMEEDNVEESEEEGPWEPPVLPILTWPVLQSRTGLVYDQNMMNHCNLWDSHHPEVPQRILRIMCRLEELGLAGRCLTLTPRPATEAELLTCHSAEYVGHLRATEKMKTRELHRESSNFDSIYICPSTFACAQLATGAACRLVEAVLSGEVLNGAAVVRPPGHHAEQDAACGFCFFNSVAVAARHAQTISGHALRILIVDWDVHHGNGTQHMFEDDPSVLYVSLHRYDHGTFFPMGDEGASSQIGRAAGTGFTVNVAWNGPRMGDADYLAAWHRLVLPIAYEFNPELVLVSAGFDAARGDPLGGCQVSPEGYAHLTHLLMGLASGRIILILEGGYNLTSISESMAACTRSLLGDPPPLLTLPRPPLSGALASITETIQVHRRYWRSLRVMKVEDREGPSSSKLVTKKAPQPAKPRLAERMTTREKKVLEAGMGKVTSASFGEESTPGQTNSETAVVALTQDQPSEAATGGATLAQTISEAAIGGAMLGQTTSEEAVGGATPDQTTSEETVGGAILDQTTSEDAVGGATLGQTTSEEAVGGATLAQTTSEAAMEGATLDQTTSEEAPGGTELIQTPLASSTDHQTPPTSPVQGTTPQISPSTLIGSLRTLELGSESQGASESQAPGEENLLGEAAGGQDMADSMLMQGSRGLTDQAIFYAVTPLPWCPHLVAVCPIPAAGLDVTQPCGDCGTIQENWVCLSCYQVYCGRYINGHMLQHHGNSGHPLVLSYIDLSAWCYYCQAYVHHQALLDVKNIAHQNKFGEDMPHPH

[15] = target: T5, Histone deacetylase 8 (Homo sapiens, UniProt Q9BY41); test: Inhibition of full-length recombinant C-terminal His-tagged human HDAC8 expressed in baculovirus infected Sf9 insect cells using Ac-Leu-Gly-Lys(Tfa)-AMC as substrate preincubated for 5 mins followed by substrate addition and further incubated for 30 mins by fluorescence based microtiter plate reader assay
T5 sequence (Q9BY41 whole entry): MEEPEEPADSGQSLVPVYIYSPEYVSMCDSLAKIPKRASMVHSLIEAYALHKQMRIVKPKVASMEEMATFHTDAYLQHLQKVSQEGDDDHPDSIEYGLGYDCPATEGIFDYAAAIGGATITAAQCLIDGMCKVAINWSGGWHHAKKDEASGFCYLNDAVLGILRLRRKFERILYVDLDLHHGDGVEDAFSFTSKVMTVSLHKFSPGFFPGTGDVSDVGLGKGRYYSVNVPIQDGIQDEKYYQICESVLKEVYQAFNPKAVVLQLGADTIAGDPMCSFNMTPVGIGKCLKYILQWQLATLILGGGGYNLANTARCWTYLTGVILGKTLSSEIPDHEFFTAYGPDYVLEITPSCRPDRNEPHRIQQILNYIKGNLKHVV

[16] = target: T2, Histone deacetylase 1; test: Inhibition of HDAC1 in HEL cells assessed as increase in acetyl-H3 levels at 20 to 100 nM incubated for 24 hrs by western blot analysis; assay type: cell-based; conditions: dose 20-100 nM
[17] = target: T3, Histone deacetylase 2; test: Inhibition of HDAC2 in HEL cells assessed as increase in acetyl-H4 levels at 20 to 100 nM incubated for 24 hrs by western blot analysis; assay type: cell-based; conditions: dose 20-100 nM
[18] = system: HEL; test: Induction of apoptosis in HEL cells assessed as apoptotic cells at 0.1 uM incubated for 48 hrs by annexin V-FITC/PI staining based flow cytometry (reference value: 3.95%); assay type: functional, Homo sapiens
[19] = system: HEL; test: Induction of apoptosis in HEL cells assessed as apoptotic cells at 0.5 uM incubated for 48 hrs by annexin V-FITC/PI staining based flow cytometry (reference value: 4.23%); assay type: functional, Homo sapiens
[20] = system: HEL; test: Antitumor activity against HEL cells xenografted in BALB/C mouse assessed as T/C value at 10 mg/kg, po qd for 14 days consecutively by caliper method relative to control; assay type: functional, Homo sapiens; conditions: time 14 day

T2 sequence (Q13547 whole entry): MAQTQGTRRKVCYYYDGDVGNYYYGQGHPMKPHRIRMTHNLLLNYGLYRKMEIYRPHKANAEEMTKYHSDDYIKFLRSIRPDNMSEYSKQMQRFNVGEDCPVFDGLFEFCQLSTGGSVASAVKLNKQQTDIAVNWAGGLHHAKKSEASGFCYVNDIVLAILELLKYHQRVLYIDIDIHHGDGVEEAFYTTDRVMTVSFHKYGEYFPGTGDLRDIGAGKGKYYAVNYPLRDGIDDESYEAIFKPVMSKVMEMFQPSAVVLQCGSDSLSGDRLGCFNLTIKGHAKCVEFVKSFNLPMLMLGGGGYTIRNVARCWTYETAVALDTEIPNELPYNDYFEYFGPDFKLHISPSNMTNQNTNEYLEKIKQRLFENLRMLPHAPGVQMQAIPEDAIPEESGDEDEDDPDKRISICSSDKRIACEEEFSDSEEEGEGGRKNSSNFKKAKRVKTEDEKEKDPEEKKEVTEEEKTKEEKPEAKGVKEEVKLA
T3 sequence (Q92769 whole entry): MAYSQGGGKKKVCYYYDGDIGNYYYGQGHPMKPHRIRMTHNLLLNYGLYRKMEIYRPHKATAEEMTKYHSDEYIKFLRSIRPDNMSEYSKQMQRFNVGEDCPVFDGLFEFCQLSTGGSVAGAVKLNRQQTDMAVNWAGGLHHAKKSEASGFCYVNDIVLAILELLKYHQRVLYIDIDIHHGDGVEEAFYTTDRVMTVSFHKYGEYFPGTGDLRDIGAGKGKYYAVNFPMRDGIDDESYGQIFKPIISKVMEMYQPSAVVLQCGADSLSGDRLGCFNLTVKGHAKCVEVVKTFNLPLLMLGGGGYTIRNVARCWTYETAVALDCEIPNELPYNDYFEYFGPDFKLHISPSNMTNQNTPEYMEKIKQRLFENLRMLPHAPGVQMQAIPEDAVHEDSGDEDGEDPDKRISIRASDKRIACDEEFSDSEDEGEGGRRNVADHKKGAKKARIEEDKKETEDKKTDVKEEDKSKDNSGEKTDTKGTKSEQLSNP
Sequence of DNA topoisomerase 2-alpha (Homo sapiens) (P11388 whole entry): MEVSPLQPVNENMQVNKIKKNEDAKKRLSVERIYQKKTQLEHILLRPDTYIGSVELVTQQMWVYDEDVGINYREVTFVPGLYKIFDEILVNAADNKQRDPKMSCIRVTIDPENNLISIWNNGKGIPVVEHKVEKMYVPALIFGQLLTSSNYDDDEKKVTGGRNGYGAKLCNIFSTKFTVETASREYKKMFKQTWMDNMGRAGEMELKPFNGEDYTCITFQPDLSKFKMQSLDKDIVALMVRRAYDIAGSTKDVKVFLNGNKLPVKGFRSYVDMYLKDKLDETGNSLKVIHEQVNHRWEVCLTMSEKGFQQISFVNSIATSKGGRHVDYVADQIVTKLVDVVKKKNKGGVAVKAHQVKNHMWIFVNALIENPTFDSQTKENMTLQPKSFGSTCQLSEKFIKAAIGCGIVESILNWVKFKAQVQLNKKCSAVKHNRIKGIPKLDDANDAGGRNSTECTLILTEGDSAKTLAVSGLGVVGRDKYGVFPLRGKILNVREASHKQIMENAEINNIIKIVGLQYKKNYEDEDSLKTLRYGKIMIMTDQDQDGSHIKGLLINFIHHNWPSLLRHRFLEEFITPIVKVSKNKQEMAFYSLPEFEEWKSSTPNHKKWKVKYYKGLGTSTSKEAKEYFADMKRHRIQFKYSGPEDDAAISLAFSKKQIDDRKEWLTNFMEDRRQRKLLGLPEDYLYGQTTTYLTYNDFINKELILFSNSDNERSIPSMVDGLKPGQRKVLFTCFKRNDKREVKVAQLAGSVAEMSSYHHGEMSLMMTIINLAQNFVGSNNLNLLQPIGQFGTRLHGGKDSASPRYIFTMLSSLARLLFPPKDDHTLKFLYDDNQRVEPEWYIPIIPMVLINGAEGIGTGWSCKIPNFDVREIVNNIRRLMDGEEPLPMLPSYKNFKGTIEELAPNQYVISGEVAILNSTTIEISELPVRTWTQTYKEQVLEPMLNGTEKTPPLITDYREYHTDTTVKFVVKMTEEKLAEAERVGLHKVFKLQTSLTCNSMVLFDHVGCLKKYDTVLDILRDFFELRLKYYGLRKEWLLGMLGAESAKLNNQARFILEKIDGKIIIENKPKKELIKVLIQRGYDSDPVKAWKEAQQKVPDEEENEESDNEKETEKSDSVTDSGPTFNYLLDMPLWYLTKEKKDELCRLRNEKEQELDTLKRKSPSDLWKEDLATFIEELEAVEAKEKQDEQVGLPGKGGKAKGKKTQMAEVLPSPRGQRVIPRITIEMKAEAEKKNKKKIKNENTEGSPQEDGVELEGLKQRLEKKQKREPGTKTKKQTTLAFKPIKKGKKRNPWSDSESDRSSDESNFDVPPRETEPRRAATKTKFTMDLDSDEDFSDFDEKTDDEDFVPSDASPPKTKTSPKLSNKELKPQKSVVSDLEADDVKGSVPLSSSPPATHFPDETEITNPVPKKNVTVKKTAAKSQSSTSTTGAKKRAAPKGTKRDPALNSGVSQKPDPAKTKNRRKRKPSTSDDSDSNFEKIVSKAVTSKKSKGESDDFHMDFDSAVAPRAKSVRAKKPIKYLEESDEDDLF
Sequence of Histone deacetylase 3 (O15379 whole entry): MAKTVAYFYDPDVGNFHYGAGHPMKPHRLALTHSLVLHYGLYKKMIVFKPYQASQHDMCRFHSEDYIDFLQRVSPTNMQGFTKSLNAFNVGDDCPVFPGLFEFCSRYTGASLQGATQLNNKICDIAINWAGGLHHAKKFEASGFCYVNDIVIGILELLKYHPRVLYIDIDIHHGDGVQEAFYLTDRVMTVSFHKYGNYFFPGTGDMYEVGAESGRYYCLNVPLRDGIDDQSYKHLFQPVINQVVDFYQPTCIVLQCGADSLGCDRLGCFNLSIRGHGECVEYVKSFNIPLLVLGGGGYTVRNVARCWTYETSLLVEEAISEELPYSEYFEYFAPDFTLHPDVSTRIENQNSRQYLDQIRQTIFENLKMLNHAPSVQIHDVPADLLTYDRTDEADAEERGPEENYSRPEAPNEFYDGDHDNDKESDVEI

inhibition [1]	inhibition [2]	IC50 [3]	IC50 [4]	IC50 [5]	IC50 [6]	IC50 [7]	IC50 [8]	inhibition [10]	inhibition [11]	IC50 [12]	IC50 [13]	IC50 [14]	IC50 [15]	inhibition [16]	inhibition [17]	SMILES	IC50 [9]	Activity [18]	Activity [19]	T/C [20]
Active	Active	320 nM	> 2000 nM	930 nM	> 2000 nM	290 nM	120 nM	Active	Active	42000 nM	15000 nM	11000 nM	690 nM	Active	Active	CN1c2ccc(F)cc2C(=O)N2CCc3c([nH]c4ccc(OCc5ccc(/C=C/C(=O)Nc6ccccc6N)cc5)cc34)C21 (stereo not given)	240 nM	–	–	–
–	–	–	–	–	–	–	–	–	–	–	–	–	–	–	–	O=C(CCCCCCC(=O)Nc1ccccc1)NO [VORINOSTAT]	–	15.83%	46.97%	88.3%
